# Literature values, collected in patent US11053254B2, “Crystalline forms of mitomycin C for treatment of cancer” (TRANSGENEX NANOBIOTECH, INC., priority 2018, dated 2021).
# Details: acidic solutions with pH<6
compound,measurement,value
"CO[C@@]12[C@H](COC(N)=O)C3=C(C(=O)C(C)=C(N)C3=O)N1C[C@@H]1N[C@@H]12 [Mitomycin C, [(4S,6S,7R,8S)-11-amino-7-methoxy-12-methyl-10,13-dioxo-2,5-diazatetracyclo[7.4.0.0^2,7.0^4,6]trideca-1(9),11-dien-8-yl]methyl carbamate]",degradation in acidic solutions,rapid degradation
